Each structure is given as a SMILES string.

Common to all, as to assay: Drug affinity chromatography with c-ponatinib and LC-MS/MS (ponatinib interactome)
Type in all cases: binding

The target in assay [1] is T1, proteins of U2OS cell lysate (Homo sapiens, UniProt P04792).
T1 construct: Proteins enriched by c-ponatinib from U2OS cell lysate; endogenous in cells; host or cells: U2OS cell lysate
As to conditions: HSPB1, Heat shock protein beta-1. The procedure, abridged: (§1)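 U2OS cell lysate in NP-40 lysis buffer (2 mg protein per pulldown) was incubated with amine-derivatized NHS beads for 2 h at 4 °C. Bound proteins were washed, eluted with 100 mM formic acid, reduced, alkylated and trypsin-digested, then identified by nano-UPLC–MS/MS on Orbitrap instruments with a 60 min gradient.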

For assay [2], the target named is T2, proteins of U2OS cell lysate (Homo sapiens, UniProt P05388).
T2 construct: Proteins enriched by c-ponatinib from U2OS cell lysate; endogenous in cells; host or cells: U2OS cell lysate
The note with it: RPLP0;RPLP0P6, 60S acidic ribosomal protein P0. The procedure, abridged:
as §1

Assay [3] deals with T3, proteins of U2OS cell lysate (Homo sapiens, UniProt P10809).
T3 construct: Proteins enriched by c-ponatinib from U2OS cell lysate; endogenous in cells; host or cells: U2OS cell lysate
As to conditions: HSPD1, 60 kDa heat shock protein, mitochondrial. The procedure, abridged: as §1

The target in assay [4] is T4, proteins of U2OS cell lysate (Homo sapiens, UniProt P23246).
T4 construct: Proteins enriched by c-ponatinib from U2OS cell lysate; endogenous in cells; host or cells: U2OS cell lysate
T4 sequence (P23246 whole entry): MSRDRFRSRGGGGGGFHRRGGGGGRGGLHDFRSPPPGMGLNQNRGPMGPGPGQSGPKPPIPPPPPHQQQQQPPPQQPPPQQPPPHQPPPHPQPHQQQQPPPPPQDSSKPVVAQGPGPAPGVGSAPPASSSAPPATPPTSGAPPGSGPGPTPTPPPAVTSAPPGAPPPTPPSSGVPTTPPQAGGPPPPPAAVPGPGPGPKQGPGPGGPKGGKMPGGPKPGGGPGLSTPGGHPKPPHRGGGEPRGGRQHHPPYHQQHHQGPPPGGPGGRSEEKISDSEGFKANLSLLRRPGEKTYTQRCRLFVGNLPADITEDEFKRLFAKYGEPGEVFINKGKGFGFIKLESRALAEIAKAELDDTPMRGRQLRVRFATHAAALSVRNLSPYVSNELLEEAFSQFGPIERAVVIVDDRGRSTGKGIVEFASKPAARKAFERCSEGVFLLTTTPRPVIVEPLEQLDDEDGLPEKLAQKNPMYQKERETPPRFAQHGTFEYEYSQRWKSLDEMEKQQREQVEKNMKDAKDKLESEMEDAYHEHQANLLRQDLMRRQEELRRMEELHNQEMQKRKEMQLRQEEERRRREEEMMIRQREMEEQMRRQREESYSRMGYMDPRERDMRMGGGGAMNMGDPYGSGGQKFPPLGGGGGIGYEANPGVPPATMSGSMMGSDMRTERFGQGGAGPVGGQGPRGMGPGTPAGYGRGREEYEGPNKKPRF
The note with it: SFPQ, Splicing factor, proline- and glutamine-rich. The procedure, abridged:
as §1

The target in assay [5] is T5, proteins of U2OS cell lysate (Homo sapiens, UniProt P26368).
T5 construct: Proteins enriched by c-ponatinib from U2OS cell lysate; endogenous in cells; host or cells: U2OS cell lysate
The note with it: U2AF2, Splicing factor U2AF 65 kDa subunit. The method, boiled down:
as §1

Assay [6] deals with T6, proteins of U2OS cell lysate (Homo sapiens, UniProt P26640).
T6 construct: Proteins enriched by c-ponatinib from U2OS cell lysate; endogenous in cells; host or cells: U2OS cell lysate
As to conditions: VARS, Valine--tRNA ligase. The method, boiled down: as §1

The target in assay [7] is T7, proteins of U2OS cell lysate (Homo sapiens, UniProt P29317).
T7 construct: Proteins enriched by c-ponatinib from U2OS cell lysate; endogenous in cells; host or cells: U2OS cell lysate
As to conditions: EPHA2, Ephrin type-A receptor 2. The procedure, abridged: as §1

Assay [8] has as its target T8, proteins of U2OS cell lysate (Homo sapiens, UniProt P35579).
T8 construct: Proteins enriched by c-ponatinib from U2OS cell lysate; endogenous in cells; host or cells: U2OS cell lysate
The note with it: MYH9, Myosin-9. The method, boiled down: as §1

The target of assay [9] is T9, proteins of U2OS cell lysate (Homo sapiens, UniProt P35606).
T9 construct: Proteins enriched by c-ponatinib from U2OS cell lysate; endogenous in cells; host or cells: U2OS cell lysate
The note with it: COPB2, Coatomer subunit beta. The method, boiled down:
as §1

The target in assay [10] is T10, proteins of U2OS cell lysate (Homo sapiens, UniProt Q14152).
T10 construct: Proteins enriched by c-ponatinib from U2OS cell lysate; endogenous in cells; host or cells: U2OS cell lysate
As to conditions: EIF3A, Eukaryotic translation initiation factor 3 subunit A. The method, boiled down: as §1

Assay [11] has as its target T11, proteins of U2OS cell lysate (Homo sapiens, UniProt Q14566).
T11 construct: Proteins enriched by c-ponatinib from U2OS cell lysate; endogenous in cells; host or cells: U2OS cell lysate
The note with it: MCM6, DNA replication licensing factor MCM6. The method, boiled down:
as §1

Assay [12] addresses T12, proteins of U2OS cell lysate (Homo sapiens, UniProt Q15365).
T12 construct: Proteins enriched by c-ponatinib from U2OS cell lysate; endogenous in cells; host or cells: U2OS cell lysate
As to conditions: PCBP1, Poly(rC)-binding protein 1. The method, boiled down: as §1

Assay [13] concerns the target T13, proteins of U2OS cell lysate (Homo sapiens, UniProt Q16531).
T13 construct: Proteins enriched by c-ponatinib from U2OS cell lysate; endogenous in cells; host or cells: U2OS cell lysate
As to conditions: DDB1, DNA damage-binding protein 1. The procedure, abridged:
as §1

The target in assay [14] is T14, proteins of U2OS cell lysate (Homo sapiens, UniProt Q16854).
T14 construct: Proteins enriched by c-ponatinib from U2OS cell lysate; endogenous in cells; host or cells: U2OS cell lysate
T14 sequence (Q16854 40-277): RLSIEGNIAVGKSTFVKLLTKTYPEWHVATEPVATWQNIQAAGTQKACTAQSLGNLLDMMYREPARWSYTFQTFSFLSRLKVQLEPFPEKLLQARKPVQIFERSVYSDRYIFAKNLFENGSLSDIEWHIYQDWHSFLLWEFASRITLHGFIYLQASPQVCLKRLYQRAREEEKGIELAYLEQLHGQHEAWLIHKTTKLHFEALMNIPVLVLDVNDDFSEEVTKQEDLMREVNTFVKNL
The note with it: DGUOK, Deoxyguanosine kinase, mitochondrial. The method, boiled down: as §1

For assay [15], the target named is T15, proteins of U2OS cell lysate (Homo sapiens, UniProt Q7L014).
T15 construct: Proteins enriched by c-ponatinib from U2OS cell lysate; endogenous in cells; host or cells: U2OS cell lysate
The note with it: DDX46, Probable ATP-dependent RNA helicase DDX46. The method, boiled down:
as §1

Assay [16] has as its target T16, proteins of U2OS cell lysate (Homo sapiens, UniProt Q9BSJ8).
T16 construct: Proteins enriched by c-ponatinib from U2OS cell lysate; endogenous in cells; host or cells: U2OS cell lysate
The note with it: ESYT1, Extended synaptotagmin-1. The method, boiled down:
as §1

Assay [17] has as its target T17, proteins of U2OS cell lysate (Homo sapiens, UniProt Q9ULV4).
T17 construct: Proteins enriched by c-ponatinib from U2OS cell lysate; endogenous in cells; host or cells: U2OS cell lysate
As to conditions: CORO1C, Coronin-1C. The method, boiled down:
as §1

Assay [18] concerns the target T18, proteins of U2OS cell lysate (Homo sapiens, UniProt P25787).
T18 construct: Proteins enriched by c-ponatinib from U2OS cell lysate; endogenous in cells; host or cells: U2OS cell lysate
The note with it: captured protein PSMA2, Rank 214. The procedure, abridged: as §1

Assay [19] has as its target T19, proteins of U2OS cell lysate (Homo sapiens, UniProt P62826).
T19 construct: Proteins enriched by c-ponatinib from U2OS cell lysate; endogenous in cells; host or cells: U2OS cell lysate
As to conditions: captured protein RAN, Rank 147. The method, boiled down:
as §1

T8 sequence (P35579 whole entry): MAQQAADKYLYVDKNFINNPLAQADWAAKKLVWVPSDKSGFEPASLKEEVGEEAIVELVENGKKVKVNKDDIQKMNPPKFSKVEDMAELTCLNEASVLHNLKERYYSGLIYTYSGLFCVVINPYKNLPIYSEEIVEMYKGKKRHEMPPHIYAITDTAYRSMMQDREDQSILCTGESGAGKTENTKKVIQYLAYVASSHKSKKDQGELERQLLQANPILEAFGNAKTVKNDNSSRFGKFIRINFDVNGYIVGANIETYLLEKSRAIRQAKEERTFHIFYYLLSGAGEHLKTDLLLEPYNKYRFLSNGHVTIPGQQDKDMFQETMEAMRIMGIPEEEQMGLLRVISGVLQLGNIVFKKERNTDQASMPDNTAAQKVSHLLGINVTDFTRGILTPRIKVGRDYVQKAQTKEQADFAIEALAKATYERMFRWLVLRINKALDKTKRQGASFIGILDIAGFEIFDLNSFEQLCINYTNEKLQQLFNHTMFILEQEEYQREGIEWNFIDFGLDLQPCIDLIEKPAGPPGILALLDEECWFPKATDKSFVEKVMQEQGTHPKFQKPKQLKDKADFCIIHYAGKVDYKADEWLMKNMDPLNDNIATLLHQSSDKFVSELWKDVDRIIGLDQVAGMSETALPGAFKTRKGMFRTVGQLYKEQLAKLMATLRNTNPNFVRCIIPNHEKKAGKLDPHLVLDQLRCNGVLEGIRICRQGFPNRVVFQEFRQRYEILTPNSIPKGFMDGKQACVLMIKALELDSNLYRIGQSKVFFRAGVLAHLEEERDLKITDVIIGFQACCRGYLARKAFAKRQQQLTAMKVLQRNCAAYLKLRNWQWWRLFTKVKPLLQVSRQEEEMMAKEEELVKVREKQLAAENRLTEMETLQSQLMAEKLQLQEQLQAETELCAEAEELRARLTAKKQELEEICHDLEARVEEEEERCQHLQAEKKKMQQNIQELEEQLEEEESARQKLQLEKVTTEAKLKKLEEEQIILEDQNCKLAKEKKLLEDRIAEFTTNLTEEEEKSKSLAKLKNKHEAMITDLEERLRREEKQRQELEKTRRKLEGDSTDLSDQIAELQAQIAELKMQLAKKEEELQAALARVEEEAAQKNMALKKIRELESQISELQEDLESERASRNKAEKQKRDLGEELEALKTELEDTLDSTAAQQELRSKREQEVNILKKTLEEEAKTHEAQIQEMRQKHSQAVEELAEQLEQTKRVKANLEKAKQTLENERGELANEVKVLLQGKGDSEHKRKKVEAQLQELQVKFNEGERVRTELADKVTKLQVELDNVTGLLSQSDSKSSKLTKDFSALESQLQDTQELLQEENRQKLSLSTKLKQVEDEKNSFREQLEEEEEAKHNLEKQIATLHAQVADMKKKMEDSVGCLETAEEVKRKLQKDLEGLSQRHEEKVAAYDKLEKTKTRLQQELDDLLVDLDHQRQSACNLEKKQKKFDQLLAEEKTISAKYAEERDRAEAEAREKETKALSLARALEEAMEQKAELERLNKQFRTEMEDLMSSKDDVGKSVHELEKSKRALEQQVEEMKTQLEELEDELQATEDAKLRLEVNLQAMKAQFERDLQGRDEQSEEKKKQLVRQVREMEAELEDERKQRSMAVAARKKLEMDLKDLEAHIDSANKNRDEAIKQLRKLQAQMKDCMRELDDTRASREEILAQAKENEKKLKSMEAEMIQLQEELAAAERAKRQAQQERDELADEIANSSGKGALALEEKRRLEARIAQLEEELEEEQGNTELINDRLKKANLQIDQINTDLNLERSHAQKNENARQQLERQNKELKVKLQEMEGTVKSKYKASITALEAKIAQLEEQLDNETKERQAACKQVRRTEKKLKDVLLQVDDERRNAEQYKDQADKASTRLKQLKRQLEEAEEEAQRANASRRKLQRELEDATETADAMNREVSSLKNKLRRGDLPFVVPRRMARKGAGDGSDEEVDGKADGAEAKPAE
T13 sequence (Q16531 whole entry): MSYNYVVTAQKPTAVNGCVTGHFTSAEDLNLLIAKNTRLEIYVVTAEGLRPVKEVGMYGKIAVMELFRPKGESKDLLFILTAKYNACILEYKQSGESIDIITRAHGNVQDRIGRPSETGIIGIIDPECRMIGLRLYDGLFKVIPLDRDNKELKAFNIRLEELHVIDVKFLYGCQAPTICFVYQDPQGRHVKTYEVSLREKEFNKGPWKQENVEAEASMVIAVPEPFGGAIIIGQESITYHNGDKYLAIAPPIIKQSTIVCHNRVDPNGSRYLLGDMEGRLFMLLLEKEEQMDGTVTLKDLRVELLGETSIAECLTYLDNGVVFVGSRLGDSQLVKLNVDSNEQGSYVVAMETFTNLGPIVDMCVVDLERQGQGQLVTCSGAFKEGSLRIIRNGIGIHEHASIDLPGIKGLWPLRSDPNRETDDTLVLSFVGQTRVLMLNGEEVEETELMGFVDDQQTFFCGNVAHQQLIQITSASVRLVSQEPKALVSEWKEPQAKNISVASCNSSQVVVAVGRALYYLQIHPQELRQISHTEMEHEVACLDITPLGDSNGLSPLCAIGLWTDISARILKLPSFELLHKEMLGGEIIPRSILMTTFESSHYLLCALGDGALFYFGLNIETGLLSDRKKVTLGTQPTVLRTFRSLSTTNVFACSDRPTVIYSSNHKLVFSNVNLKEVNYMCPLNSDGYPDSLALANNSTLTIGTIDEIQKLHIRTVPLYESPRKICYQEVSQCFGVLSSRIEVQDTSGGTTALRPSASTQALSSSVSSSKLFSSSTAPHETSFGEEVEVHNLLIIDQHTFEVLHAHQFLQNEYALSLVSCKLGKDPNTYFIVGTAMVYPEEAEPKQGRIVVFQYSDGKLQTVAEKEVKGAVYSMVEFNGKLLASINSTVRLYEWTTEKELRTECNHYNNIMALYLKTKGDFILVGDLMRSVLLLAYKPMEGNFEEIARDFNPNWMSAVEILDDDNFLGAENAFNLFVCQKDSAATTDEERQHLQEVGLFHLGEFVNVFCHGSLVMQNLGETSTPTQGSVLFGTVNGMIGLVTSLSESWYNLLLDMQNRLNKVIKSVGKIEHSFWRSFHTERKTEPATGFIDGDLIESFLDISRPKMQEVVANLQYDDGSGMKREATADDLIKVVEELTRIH
T17 sequence (Q9ULV4 whole entry): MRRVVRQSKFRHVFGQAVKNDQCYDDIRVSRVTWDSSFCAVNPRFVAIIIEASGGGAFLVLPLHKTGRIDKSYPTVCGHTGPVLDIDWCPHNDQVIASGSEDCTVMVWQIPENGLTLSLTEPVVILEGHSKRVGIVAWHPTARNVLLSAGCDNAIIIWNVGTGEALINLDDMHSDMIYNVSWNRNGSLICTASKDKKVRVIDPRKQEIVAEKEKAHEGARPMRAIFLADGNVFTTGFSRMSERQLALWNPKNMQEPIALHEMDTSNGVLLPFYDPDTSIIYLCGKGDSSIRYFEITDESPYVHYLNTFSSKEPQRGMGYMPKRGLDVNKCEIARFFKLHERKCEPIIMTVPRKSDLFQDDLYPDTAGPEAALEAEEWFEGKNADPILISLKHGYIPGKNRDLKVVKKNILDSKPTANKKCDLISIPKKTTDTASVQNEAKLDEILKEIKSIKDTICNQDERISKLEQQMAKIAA
T1 sequence (P04792 whole entry): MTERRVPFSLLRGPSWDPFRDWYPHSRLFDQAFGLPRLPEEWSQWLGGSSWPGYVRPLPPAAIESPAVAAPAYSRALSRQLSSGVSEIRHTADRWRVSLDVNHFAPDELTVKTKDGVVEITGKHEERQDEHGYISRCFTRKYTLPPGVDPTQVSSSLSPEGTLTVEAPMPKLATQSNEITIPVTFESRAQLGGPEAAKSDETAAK
T18 sequence (P25787 whole entry): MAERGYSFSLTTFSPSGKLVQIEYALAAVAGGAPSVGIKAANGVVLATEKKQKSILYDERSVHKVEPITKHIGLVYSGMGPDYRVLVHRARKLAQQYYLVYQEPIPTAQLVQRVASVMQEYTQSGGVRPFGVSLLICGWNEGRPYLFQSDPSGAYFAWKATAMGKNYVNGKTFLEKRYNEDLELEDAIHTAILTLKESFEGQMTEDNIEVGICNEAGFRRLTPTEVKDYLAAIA

Consider `Cc1ccc(C(=O)Nc2ccc(CN3CCN(C)CC3)c(C(F)(F)F)c2)cc1C#Cc1cnc2cccnn12` [PON], for which the “Average LFQ PON_WT” value is on record as 25.081 in assay [1]; 20.5709 in [2]; 21.1431 in [3]; 20.8702 in assay [4]; 21.5048 in assay [5]; 20.4235 in [6]. The “Average LFQ PON_WT” value in assay [7] was determined as 29.5288; in assay [8] it was 25.6681; in assay [9], 21.0921; in assay [10], 21.466; in [11], 19.2204; in assay [12], 21.283. Also, the “Average LFQ PON_WT” value stood at 20.7257 in assay [13]; 23.2666 in [14]; 21.404 in assay [15]; 18.8901 in assay [16]; 24.6024 in assay [17].
For `Cc1ccc(C(=O)Nc2ccc(CN3CCN(CCCN)CC3)c(C(F)(F)F)c2)cc1C#Cc1cnc2cccnn12` [c-ponatinib, reference compound], the “Average LFQ intensity” value in assay [18] came out at 21.6987; in assay [19], 22.7198.

Source of the values: publication PMC6120666 (The EMBO Journal, 2018).
